According to DBAASP:
In brackets after ≈: the same amount, converted by molar mass.

Columns and labels:
Assay in all cases: ≥ marks a high value that may be exact or a test limit, other limits are often not marked, values filed in µg/mL are converted to µM
Vibrio parahaemolyticus = tested on: Vibrio parahaemolyticus
[1] = tested on: Streptococcus equinus BCRC 14729
[2] = tested on: Staphylococcus xylosus BCRC 12930
Vibrio harveyi = tested on: Vibrio harveyi
Vibrio alginolyticus = tested on: Vibrio alginolyticus
[3] = tested on: Klebsiella oxytoca BCRC 13985
Lactococcus garvieae = tested on: Lactococcus garvieae
[4] = tested on: Vibrio parahaemolyticus BCRC 10806
Streptococcus iniae = tested on: Streptococcus iniae
[5] = tested on: Pseudomonas aeruginosa BCRC 10944
[6] = tested on: Escherichia coli BCRC 10675
[7] = tested on: Vibrio alginolyticus BCRC 12829
[8] = tested on: Yersinia enterocolitica BCRC 13999
[9] = tested on: Vibrio anguillarum serotype O1
[10] = tested on: Staphylococcus aureus BCRC 10780
[11] = tested on: Listeria monocytogenes BCRC 14845
[12] = tested on: Enterobacter cloacae BCRC 10401
[13] = tested on: Staphylococcus aureus BCRC 10781
[14] = tested on: Klebsiella aerogenes BCRC 10370
[15] = tested on: Streptococcus sanguinis NY101
[16] = tested on: Pseudomonas aeruginosa PAK
Enterococcus faecalis = tested on: Enterococcus faecalis
Escherichia coli W3110 = tested on: Escherichia coli W3110
[17] = tested on: Streptococcus sobrinus ATCC 33478
Staphylococcus aureus = tested on: Staphylococcus aureus
[18] = tested on: Streptococcus mutans UA159
[19] = tested on: Streptococcus gordonii Challis DL1
[20] = tested on: Streptococcus mitis ATCC 903
Bacillus megaterium = tested on: Bacillus megaterium
Aureobasidium pullulans = tested on: Aureobasidium pullulans
[21] = tested on: Candida albicans ATCC 10231
[22] = tested on: Pseudomonas aeruginosa ATCC 27853
[23] = tested on: Staphylococcus aureus ATCC 9144
[24] = tested on: Escherichia coli ATCC 25922
[25] = tested on: Corynebacterium glutamicum ATCC 13032
Micrococcus luteus = tested on: Micrococcus luteus
[26] = tested on: Bacillus subtilis ATCC 23857

| SMILES | MIC (Vibrio parahaemolyticus) | MIC [1] | MIC [2] | MIC (Vibrio harveyi) | MIC (Vibrio alginolyticus) | MIC [3] | MIC (Lactococcus garvieae) | MIC [4] | MIC (Streptococcus iniae) | MIC [5] | MIC [6] | MIC [7] | MIC [8] | MIC [9] | MIC [10] | MIC [11] | MIC [12] | MIC [13] | MIC [14] | MIC [15] | further results |
| --- | --- | --- | --- | --- | --- | --- | --- | --- | --- | --- | --- | --- | --- | --- | --- | --- | --- | --- | --- | --- | --- |
| CC[C@H](C)[C@H](NC(=O)[C@H](CCCCN)NC(=O)[C@@H](NC(=O)[C@@H](NC(=O)[C@@H](NC(=O)[C@H](CCCCN)NC(=O)[C@@H](NC(=O)[C@@H](NC(=O)[C@H](CCCCN)NC(=O)[C@H](CCCCN)NC(=O)[C@H](C)NC(=O)[C@H](Cc1ccc(O)cc1)NC(=O)[C@@H](NC(=O)[C@H](C)NC(=O)CN)[C@@H](C)O)[C@@H](C)CC)[C@@H](C)CC)[C@@H](C)O)[C@@H](C)CC)[C@@H](C)O)C(=O)N[C@@H](C)C(=O)N[C@H](C(=O)N[C@H](C(=O)N[C@@H](C)C(=O)N[C@@H](Cc1c[nH]c2ccccc12)C(=O)O)[C@@H](C)O)[C@@H](C)O [GATYAKKIIKTITKIATTAW] | 29.4 µM (≈ 64 µg/mL) | ≥ 58.7 µM | 29.4 µM (≈ 64 µg/mL) | 29.4 µM (≈ 64 µg/mL) | 29.4 µM (≈ 64 µg/mL) | 29.4 µM (≈ 64 µg/mL) | ≥ 58.7 µM | ≥ 58.7 µM | ≥ 58.7 µM | 29.4 µM (≈ 64 µg/mL) | 7.34 µM (≈ 16 µg/mL) | ≥ 58.7 µM | ≥ 58.7 µM | 29.4 µM (≈ 64 µg/mL) | ≥ 58.7 µM | ≥ 58.7 µM | 14.7 µM (≈ 32 µg/mL) | ≥ 58.7 µM | 29.4 µM (≈ 64 µg/mL) |  |  |
| CC[C@H](C)[C@H](NC(=O)[C@H](C)NC(=O)[C@@H](NC(=O)[C@H](Cc1ccc(O)cc1)NC(=O)[C@@H](NC(=O)[C@H](CCCCN)NC(=O)[C@H](CCCCN)NC(=O)[C@H](C)NC(=O)[C@H](Cc1ccccc1)NC(=O)[C@H](CC(N)=O)NC(=O)[C@H](CC(C)C)NC(=O)[C@@H](NC(=O)[C@H](CCCCN)NC(=O)[C@H](CCCCN)NC(=O)[C@H](CC(C)C)NC(=O)[C@H](Cc1ccccc1)NC(=O)[C@@H](NC(=O)[C@H](CC(C)C)NC(=O)CN)[C@@H](C)O)[C@@H](C)CC)[C@@H](C)CC)[C@@H](C)O)C(=O)N[C@@H](Cc1c[nH]c2ccccc12)C(=O)O [GLTFLKKILNFAKKIYTAIW] | 3.38 µM (≈ 8 µg/mL) | ≥ 54 µM | 6.75 µM (≈ 16 µg/mL) | 3.38 µM (≈ 8 µg/mL) | 3.38 µM (≈ 8 µg/mL) | ≥ 54 µM | 13.5 µM (≈ 32 µg/mL) | 13.5 µM (≈ 32 µg/mL) | 13.5 µM (≈ 32 µg/mL) | 13.5 µM (≈ 32 µg/mL) | 13.5 µM (≈ 32 µg/mL) | 13.5 µM (≈ 32 µg/mL) | 27 µM (≈ 64 µg/mL) | 3.38 µM (≈ 8 µg/mL) | 6.75 µM (≈ 16 µg/mL) | 3.38 µM (≈ 8 µg/mL) | 6.75 µM (≈ 16 µg/mL) | 6.75 µM (≈ 16 µg/mL) | 6.75 µM (≈ 16 µg/mL) |  |  |
| CC[C@H](C)[C@H](NC(=O)[C@H](Cc1ccccc1)NC(=O)[C@H](Cc1cnc[nH]1)NC(=O)[C@H](CCCCN)NC(=O)[C@@H](NC(=O)[C@H](Cc1ccccc1)NC(=O)[C@@H]1CCCN1C(=O)[C@H](CO)NC(=O)CNC(=O)[C@H](CO)NC(=O)[C@@H]1CCCN1C(=O)[C@H](Cc1ccccc1)NC(=O)[C@H](Cc1cnc[nH]1)NC(=O)[C@H](CC(C)C)NC(=O)[C@H](Cc1cnc[nH]1)NC(=O)[C@H](Cc1ccccc1)NC(=O)[C@H](Cc1cnc[nH]1)NC(=O)[C@@H](N)Cc1ccccc1)[C@@H](C)CC)C(=O)N[C@@H](Cc1cnc[nH]1)C(=O)N[C@@H](CCCN=C(N)N)C(=O)N[C@@H](Cc1ccccc1)C(N)=O [FHFHLHFPSGSPFIKHFIHRF] |  |  |  |  |  |  |  |  |  |  |  |  |  |  |  |  |  |  |  | 23.7 µM (≈ 62.5 µg/mL) | MIC [16]: ≥ 190 µM; MIC (Enterococcus faecalis): ≥ 94.8 µM; MIC (Escherichia coli W3110): ≥ 47.4 µM; MIC [17]: 23.7 µM (≈ 62.5 µg/mL); MIC (Staphylococcus aureus): > 190 µM; MIC [18]: 23.7 µM (≈ 62.5 µg/mL) |
| CC[C@H](C)[C@H](NC(=O)[C@H](Cc1cnc[nH]1)NC(=O)[C@H](CCCCN)NC(=O)[C@@H](NC(=O)[C@@H](N)CC(C)C)[C@@H](C)CC)C(=O)N[C@@H](CC(C)C)C(=O)N[C@@H](Cc1cnc[nH]1)C(=O)N[C@@H](CCCN=C(N)N)C(=O)N[C@@H](CC(C)C)C(=O)NCC(=O)NCC(=O)NCC(=O)N[C@@H](Cc1ccccc1)C(=O)N[C@@H](Cc1cnc[nH]1)C(=O)N[C@@H](Cc1ccccc1)C(=O)N[C@@H](Cc1cnc[nH]1)C(=O)N[C@@H](CC(C)C)C(=O)N[C@@H](Cc1cnc[nH]1)C(=O)N[C@@H](Cc1ccccc1)C(N)=O [LIKHILHRLGGGFHFHLHF] |  |  |  |  |  |  |  |  |  |  |  |  |  |  |  |  |  |  |  | 27.4 µM (≈ 62.5 µg/mL) | MIC [16]: ≥ 110 µM; MIC (Enterococcus faecalis): 14 µM (≈ 32 µg/mL); MIC (Escherichia coli W3110): ≥ 110 µM; MIC [17]: 14 µM (≈ 32 µg/mL); MIC (Staphylococcus aureus): 27.4 µM (≈ 62.5 µg/mL); MIC [18]: 7.02 µM (≈ 16 µg/mL) |
| CC[C@H](C)[C@H](NC(=O)[C@H](Cc1ccc(O)cc1)NC(=O)[C@H](CCCCN)NC(=O)[C@H](Cc1ccccc1)NC(=O)[C@H](Cc1ccccc1)NC(=O)[C@H](CCCCN)NC(=O)[C@H](CC(N)=O)NC(=O)[C@@H](NC(=O)[C@H](Cc1ccc(O)cc1)NC(=O)[C@H](CCCCN)NC(=O)[C@@H](NC(=O)[C@@H](NC(=O)[C@H](CC(N)=O)NC(=O)[C@H](CC(N)=O)NC(=O)[C@@H](NC(=O)[C@H](Cc1ccc(O)cc1)NC(=O)[C@H](CCCCN)NC(=O)[C@H](Cc1ccc(O)cc1)NC(=O)CN)[C@@H](C)CC)[C@@H](C)CC)[C@@H](C)CC)[C@@H](C)CC)C(=O)N[C@@H](Cc1c[nH]c2ccccc12)C(=O)O [GYKYINNIIKYINKFFKYIW] | 3.04 µM (≈ 8 µg/mL) | ≥ 48.7 µM | 3.04 µM (≈ 8 µg/mL) | 3.04 µM (≈ 8 µg/mL) | 3.04 µM (≈ 8 µg/mL) | 6.09 µM (≈ 16 µg/mL) | ≥ 48.7 µM | 12.2 µM (≈ 32 µg/mL) | 12.2 µM (≈ 32 µg/mL) | 12.2 µM (≈ 32 µg/mL) | 6.09 µM (≈ 16 µg/mL) | 12.2 µM (≈ 32 µg/mL) | ≥ 48.7 µM | 3.04 µM (≈ 8 µg/mL) | 3.04 µM (≈ 8 µg/mL) | 12.2 µM (≈ 32 µg/mL) | 6.09 µM (≈ 16 µg/mL) | 3.04 µM (≈ 8 µg/mL) | 6.09 µM (≈ 16 µg/mL) |  |  |
| NC(=O)CC[C@H](NC(=O)[C@H](Cc1c[nH]c2ccccc12)NC(=O)[C@@H](N)Cc1c[nH]c2ccccc12)C(=O)N[C@@H](CC(=O)O)C(=O)N[C@@H](Cc1c[nH]c2ccccc12)C(=O)N[C@@H](Cc1c[nH]c2ccccc12)C(=O)N[C@@H](CC(N)=O)C(=O)N[C@@H](CCC(=O)O)C(=O)N[C@@H](Cc1c[nH]c2ccccc12)C(N)=O [WWQDWWNEW] |  |  |  |  |  |  |  |  |  |  |  |  |  |  |  |  |  |  |  | ≥ 348 µM | MIC [16]: ≥ 348 µM; MIC (Enterococcus faecalis): ≥ 348 µM; MIC (Escherichia coli W3110): ≥ 348 µM; MIC [17]: ≥ 348 µM; MIC (Staphylococcus aureus): > 348 µM; MIC [19]: ≥ 348 µM; MIC [20]: ≥ 348 µM; MIC [18]: ≥ 348 µM |
| C[C@H](NC(=O)[C@H](CCCN=C(N)N)NC(=O)[C@H](Cc1c[nH]c2ccccc12)NC(=O)[C@H](Cc1c[nH]c2ccccc12)NC(=O)[C@H](Cc1c[nH]c2ccccc12)NC(=O)[C@H](Cc1c[nH]c2ccccc12)NC(=O)[C@H](CCCN=C(N)N)NC(=O)[C@H](CCCN=C(N)N)NC(=O)CN)C(=O)N[C@@H](CCCN=C(N)N)C(N)=O [GRRWWWWRAR] |  |  |  |  |  |  |  |  |  |  |  |  |  |  |  |  |  |  |  |  | MIC (Bacillus megaterium): 2.57 µM (≈ 3.9 µg/mL); MIC (Aureobasidium pullulans): ≥ 41.2 µM; MIC [21]: 41.2 µM (≈ 62.5 µg/mL); MIC [22]: 20.7 µM (≈ 31.3 µg/mL); MIC [23]: ≥ 41.2 µM; MIC [24]: 10.3 µM (≈ 15.6 µg/mL); MIC [25]: 5.15 µM (≈ 7.8 µg/mL); MIC (Micrococcus luteus): 10.3 µM (≈ 15.6 µg/mL); MIC [26]: 5.15 µM (≈ 7.8 µg/mL) |
